Measured values from patent US20260345568A1, “INHIBITING MONOACYLGLYCEROL LIPASE (MAGL)” (PSY THERAPEUTICS, INC., priority 2023, published 2026).

molecular target: T1, human MAGL (Homo sapiens, UniProt Q99685); experiment: MAGL inhibition potency, 4-nitrophenyl acetate (4NPA) hydrolysis, absorbance 405 nm (Example A); format: biochemical; conditions: Method 2: Cayman Chemical MAGL enzyme, 10 nM; 4NPA substrate; read-out: Potency
T1 construct: recombinant MAGL enzyme (aa 2-303 RBC, internal preparation)
T1 sequence (Q99685 2-303): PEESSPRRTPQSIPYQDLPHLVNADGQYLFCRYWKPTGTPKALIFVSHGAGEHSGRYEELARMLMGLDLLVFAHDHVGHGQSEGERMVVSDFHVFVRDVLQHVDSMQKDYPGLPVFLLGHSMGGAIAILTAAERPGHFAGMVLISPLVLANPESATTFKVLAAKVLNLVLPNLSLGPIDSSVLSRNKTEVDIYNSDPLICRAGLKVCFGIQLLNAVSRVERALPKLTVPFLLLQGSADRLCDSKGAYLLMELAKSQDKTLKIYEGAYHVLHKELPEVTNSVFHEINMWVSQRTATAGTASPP
Text: The potency of certain compounds for inhibiting MAGL were obtained using the following assays.
The monoacylglycerol lipase inhibitor screening assay kit from Cayman Chemical was used to measure the MAGL potency for the compounds in Tables A-1, A-2, A-3.
Cayman's Monoacylglycerol Lipase Inhibitor Screening Assay provides a method for screening human MAGL inhibitors. MAGL hydrolyzes 4-nitrophenylacetate resulting in a yellow product, 4-nitrophenol, with an absorbance of 405-412 nm.
MAGL Inhibition was measured by the following assay. Monoacylglycerol Lipase (MAGL) inhibition was measured using recombinant MAGL enzyme (aa 2-303 RBC, internal preparation) and the substrate 4-Nitrophenyl acetate (4NPA) (Sigma-Aldrich, N8130). Hydrolysis of the substrate in the presence of the enzyme was measured by absorbance at 405 nm. 10 μL of assay buffer (10 mM Tris pH 7.5, 1 mM EDTA, 0.9% DMSO) was added to a black 384-well non-binding plate with clear bottom (Greiner, 781906) for each reaction. Compounds were dispensed using an acoustic liquid handler (Echo, Beckman) at 45 nL (0.1% DMSO). Test compounds and control for MAGL inhibitor JZL-184 (Caymen Chemical, 13158) were tested in 10-concentration IC50 mode with 3-fold serial dilution at a starting concentration of […]. DMSO control wells were included for reference. A 10.8 nM (1.8×) MAGL mix in assay buffer was prepared, with 25 μL added to each reaction well, for a final assay concentration of […]. No enzyme wells received 25 μL of buffer. Plate was incubated at room temperature for 30 minutes. 35 mM solution of 4NPA in methanol was prepared daily A 4.5×4NPA substrate solution was prepared in assay buffer and 10 μL was added to each reaction well, for a final assay concentration of 0.25 mM. Plate was spun for 1 minute at 1000 rpm before measuring absorbance using a CLARIOstar plate reader (BMG Labtech). A kinetic reading at 405 nm was done every minute for 30 minutes. Data was analyzed using the linear slope of the reaction progress curve and the average of the no-enzyme wells (background) was subtracted from the data. The background-subtracted slope data was converted to % activity using the average of wells with enzyme and DMSO vehicle. IC50s were calculated using GraphPad software (Sigmoidal dose response, variable slope equation).
Table 8 provides potency measurements of MAGL inhibition measured using the Potency Assay of Example A above, with the following modifications described in Table C.
The number after each letter for potency measurement value indicates the Method from Table C that was used to obtain that measurement value (e.g. “A(1)” indicates an IC50 measurement of <50 nM obtained from the Method 1 of Example A in Table C).

Row | IC50 [nM] | SMILES
1 | > 10000 | Cc1cc(C2CC3(C2)CN([C@H]2CCOc4ccccc42)C3)n(-c2ccccc2C)n1 [Compound C4, reference compound]

same assay, conditions: Method 12: Reaction Biology MAGL enzyme, 15 nM; 4NPA substrate; read-out: MAGL Potency (Detection Method)

Row | SMILES | IC50 [nM]
2 | O=C(c1cc(O)ccc1F)N1CC2(CC(n3ncc(C(F)(F)F)c3-c3cccnc3)C2)C1 [Compound 1, (2-fluoro-5-hydroxyphenyl){6-[5-(3-pyridyl)-4-(trifluoromethyl)-1-pyrazolyl]-2-aza-2-spiro[3.3]heptyl}methanone] | 150 to 500
3 | O=C(c1cc(O)ccc1F)N1CC2(CC(n3cc(C(F)(F)F)c(-c4cccnc4)n3)C2)C1 [Compound 2, (2-fluoro-5-hydroxyphenyl){6-[3-(3-pyridyl)-4-(trifluoromethyl)-1-pyrazolyl]-2-aza-2-spiro[3.3]heptyl}methanone] | < 50
4 | O=C(c1cc(O)ccc1F)N1CC2(CC(n3nc(C(F)(F)F)cc3-c3cccnc3)C2)C1 [Compound 3, (2-fluoro-5-hydroxyphenyl){6-[5-(3-pyridyl)-3-(trifluoromethyl)-1-pyrazolyl]-2-aza-2-spiro[3.3]heptyl}methanone] | 50 to 150
5 | O=C(c1cc(O)ccc1F)N1CC2(CC(n3nc(-c4cccnc4)cc3C(F)(F)F)C2)C1 [Compound 4, (2-fluoro-5-hydroxyphenyl){6-[3-(3-pyridyl)-5-(trifluoromethyl)-1-pyrazolyl]-2-aza-2-spiro[3.3]heptyl}methanone] | < 50
6 | O=C(c1cc(O)ccc1F)N1CC2(CC(n3nc(-c4ccccn4)cc3C(F)(F)F)C2)C1 [Compound 6, (2-fluoro-5-hydroxyphenyl){6-[3-(2-pyridyl)-5-(trifluoromethyl)-1-pyrazolyl]-2-aza-2-spiro[3.3]heptyl}methanone] | 150 to 500
7 | O=C(c1cc(O)ccc1F)N1CC2(CC(n3nc(C(F)(F)F)cc3-c3ccncc3)C2)C1 [Compound 7, (2-fluoro-5-hydroxyphenyl){6-[5-(4-pyridyl)-3-(trifluoromethyl)-1-pyrazolyl]-2-aza-2-spiro[3.3]heptyl}methanone] | 150 to 500
8 | O=C(c1cc(O)ccc1F)N1CC2(CC(n3nc(-c4ccncc4)cc3C(F)(F)F)C2)C1 [Compound 8, (2-fluoro-5-hydroxyphenyl){6-[3-(4-pyridyl)-5-(trifluoromethyl)-1-pyrazolyl]-2-aza-2-spiro[3.3]heptyl}methanone] | < 50
9 | O=C(c1cc(O)ccc1F)N1CC2(CC(n3nc(C(F)(F)F)cc3-c3ccc(=O)[nH]c3)C2)C1 [Compound 9, 5-(1-(2-(2-fluoro-5-hydroxybenzoyl)-2-azaspiro [3.3]heptan-6-yl)-3-(trifluoromethyl)-1H-pyrazol-5-yl) pyridin-2(1H)-one] | 150 to 500
10 | O=C(c1cc(O)ccc1F)N1CC2(CC(n3nc(C(F)(F)F)cc3-c3ccc[nH]c3=O)C2)C1 [Compound 11, 3-(1-(2-(2-fluoro-5-hydroxybenzoyl)-2-azaspiro [3.3]heptan-6-yl)-3-(trifluoromethyl)-1H-pyrazol-5-yl) pyridin-2(1H)-one] | 150 to 500
11 | O=C(c1cc(O)ccc1F)N1CC2(CC(n3nc(C(F)(F)F)cc3-c3cncc(F)c3)C2)C1 [Compound 13] | 150 to 500
12 | O=C(c1cc(O)ccc1F)N1CC2(CC(n3nc(-c4cncc(F)c4)cc3C(F)(F)F)C2)C1 [Compound 14, (2-fluoro-5-hydroxyphenyl){6-[3-(5-fluoro-3-pyridyl)-5-(trifluoromethyl)-1-pyrazolyl]-2-aza-2-spiro[3.3]heptyl}methanone] | 50 to 150
13 | COc1ncccc1-c1cc(C(F)(F)F)nn1C1CC2(C1)CN(C(=O)c1cc(O)ccc1F)C2 [Compound 16] | 50 to 150
14 | COc1ccc(-c2cc(C(F)(F)F)nn2C2CC3(C2)CN(C(=O)c2cc(O)ccc2F)C3)cn1 [Compound 18, (2-fluoro-5-hydroxyphenyl) (6-(5-(6-methoxypyridin-3-yl)-3-(trifluoromethyl)-1H-pyrazol-1-yl)-2-azaspiro [3.3]heptan-2-yl) methanone] | 150 to 500
15 | COc1ncccc1-c1c(C(F)(F)F)cnn1C1CC2(C1)CN(C(=O)c1cc(O)ccc1F)C2 [Compound 19, (2-fluoro-5-hydroxyphenyl){6-[5-(2-methoxy-3-pyridyl)-4-(trifluoromethyl)-1-pyrazolyl]-2-aza-2-spiro[3.3]heptyl}methanone] | < 50
16 | COc1ncccc1-c1nn(C2CC3(C2)CN(C(=O)c2cc(O)ccc2F)C3)cc1C(F)(F)F [Compound 20] | 150 to 500
17 | O=C(c1cc(O)ccc1F)N1CC2(CC(n3ncc(C(F)(F)F)c3-c3cccnc3F)C2)C1 [Compound 21] | 150 to 500
18 | O=C(c1cc(O)ccc1F)N1CC2(CC(n3cc(C(F)(F)F)c(-c4cccnc4F)n3)C2)C1 [Compound 22, (2-fluoro-5-hydroxyphenyl){6-[3-(2-fluoro-3-pyridyl)-4-(trifluoromethyl)-1-pyrazolyl]-2-aza-2-spiro[3.3]heptyl}methanone] | < 50

Continued, values first:

Row | IC50 [nM] | SMILES
19 | 50 to 150 | COc1ccc(-c2c(C(F)(F)F)cnn2C2CC3(C2)CN(C(=O)c2cc(O)ccc2F)C3)cn1 [Compound 27]
20 | < 50 | COc1ccc(-c2nn(C3CC4(C3)CN(C(=O)c3cc(O)ccc3F)C4)cc2C(F)(F)F)cn1 [Compound 28, (2-fluoro-5-hydroxyphenyl){6-[3-(6-methoxy-3-pyridyl)-4-(trifluoromethyl)-1-pyrazolyl]-2-aza-2-spiro[3.3]heptyl}methanone]
21 | 1000 to 5100 | O=C(c1cc(O)ccc1F)N1CC2(CC(n3ncc(C(F)(F)F)c3-c3ccc[nH]c3=O)C2)C1 [Compound 29, 3-(1-{2-(2-fluoro-5-hydroxybenzoyl)-2-aza-6-spiro[3.3]heptyl}-4-(trifluoromethyl)-5-pyrazolyl)-2(1H)-pyridinone]
22 | 50 to 150 | O=C(c1cc(O)ccc1F)N1CC2(CC(n3cc(C(F)(F)F)c(-c4ccc[nH]c4=O)n3)C2)C1 [Compound 30, 3-(1-{2-(2-fluoro-5-hydroxybenzoyl)-2-aza-6-spiro[3.3]heptyl}-4-(trifluoromethyl)-3-pyrazolyl)-2(1H)-pyridinone]
23 | 1000 to 5100 | O=C(c1cc(O)ccc1F)N1CC2(CC(n3ncc(C(F)(F)F)c3-c3ccc(=O)[nH]c3)C2)C1 [Compound 31, 5-(1-{2-(2-fluoro-5-hydroxybenzoyl)-2-aza-6-spiro[3.3]heptyl}-4-(trifluoromethyl)-5-pyrazolyl)-2(1H)-pyridinone]
24 | 50 to 150 | O=C(c1cc(O)ccc1F)N1CC2(CC(n3cc(C(F)(F)F)c(-c4ccc(=O)[nH]c4)n3)C2)C1 [Compound 32]
25 | 1000 to 5100 | O=C(c1ccc(F)cc1OC1CC1)N1CC2(CC(N3C=C(c4ccccc4F)CC3=O)C2)C1 [Compound 33, 1-{2-(2-cyclopropoxy-4-fluorobenzoyl)-2-aza-6-spiro[3.3]heptyl}-3-(o-fluorophenyl)-2-pyrrolin-5-one]
26 | 150 to 500 | O=C1CCC(c2c(C(F)(F)F)cnn2C2CC3(C2)CN(C(=O)c2cc(O)ccc2F)C3)CN1 (centres unmarked) [Compound 41, 5-(1-{2-(2-fluoro-5-hydroxybenzoyl)-2-aza-6-spiro[3.3]heptyl}-4-(trifluoromethyl)-5-pyrazolyl)-2-piperidinone]
